We go through two compounds from US20250281628A1, “COMPOSITE NANOPARTICULATE MINERALIZED COLLAGEN GLYCOSAMINOGLYCAN MATERIALS WITH TIME RELEASE ANTI-RESORPTIVE FACTORS” (The Regents of the University of California, priority 2021, published 2025).

Experiment [1] has as its system MEK1/ERK1/2 signaling pathway. As to the kind of experiment: Inhibitor study with PD98059, western blot of hMSCs on scaffolds. The class given is cell-based, human. As to conditions: 50 μM. As for the experimental part:
(§1) Osteogenic differentiation of hMSCs on Col-GAG and MC-GAG: 3×10^5 hMSCs were seeded onto 8 mm discs of CG-GAG and MC-GAG scaffolds in proliferation media. 24 h after seeding, media was switched to osteogenic differentiation media consisting of 10 mM β-glycerophosphate, 50 μg/mL ascorbic acid, and 0.1 μM dexamethasone. For inhibitor studies, scaffolds were treated or untreated with dorsomorphin homologue 1 (DMH1; Sigma-Aldrich) or PD98059 (Cell Signaling Technologies, Beverly, MA) separately, all at a concentration of 50 μM. Fresh DMH1 and PD98059 were added to each media change every 3 days.
(§2) Western blot: Lysates were prepared from scaffolds at 0, 4, 14, and 24 days of culture using SDS sample buffer and equal amounts were subjected to 4-20% SDS-PAGE (Bio-Rad, Hercules, CA). Western blot analysis was carried out with antibodies against OPG, RANKL, phosphorylated small mothers against decapentaplegic 1/5 (p-Smad1/5), total Smad5, phosphorylated extracellular regulated kinase 1/2 (p-ERK1/2), total ERK1/2, and […] followed by 1:4000 dilutions of HRP-conjugated IgG antibodies (Bio-Rad, Hercules, CA) and an enhanced chemiluminescent substrate (Thermo Scientific, Rockford, IL). For detection of p-Smad1/5 and total Smad5, 10 μg of lysate was loaded per lane. For detection of OPG, RANKL, p-ERK1/2, total ERK1/2, and β-actin, 20 μg of lysate was loaded per lane. All antibodies were obtained from Cell Signaling Technologies (Beverly, MA) with the exception of RANKL, OPG, and β-actin antibodies which were obtained from Santa Cruz Biotechnology (Santa Cruz, CA). Imaging analysis was carried out using ImageJ (NIH, Bethesda, MD).
(§3) To characterize the mechanism responsible for differential OPG expression osteogenically differentiated hMSCs cultured on MC-GAG versus Col-GAG, DMH1, and PD98059 small molecule inhibitors were utilized for the canonical BMP receptor and MEK1/ERK1/2 signaling pathways, respectively (FIG. 11). […] Due to the massive upregulation of Smad1/5 phosphorylation in MC-GAG, a smaller inhibition was noted compared to Col-GAG. […] In contrast, OPG expression was increased in the presence of DMH1 on both Col-GAG and MC-GAG, particularly at the day 14 timepoint.
(A western blot detects proteins with antibodies after separation by electrophoresis.)

Experiment [2] concerns canonical BMP receptor signaling pathway. As to the kind of experiment: Inhibitor study with DMH1, western blot of hMSCs on scaffolds. In kind it is cell-based, human. As to conditions: 50 μM. The method, then: as §1, §2, §3

On to `COc1cccc(-c2cc(=O)c3ccccc3o2)c1N` [PD98059], for which the “phosphorylated Smad1/5, total Smad5, total ERK1/2, or actin” value in experiment [1] is recorded as “no effects”. For the same compound, the “phosphorylated ERK1/2” value in experiment [1] (all timepoints, either material) is reported as “decreased”. In addition, the OPG protein expression entry in experiment [1] (hMSCs on Col-GAG) is reported as “no differences were detected”; in experiment [1] (hMSCs on MC-GAG, all timepoints) it was “decreased”. The RANKL expression result in experiment [1] (hMSCs on Col-GAG) is reported as “no differences were detected”; in experiment [1] (hMSCs on MC-GAG, particularly day 24) it was “downregulated”.
On to `CC(C)Oc1ccc(-c2cnc3c(-c4ccnc5ccccc45)cnn3c2)cc1` [DMH1, dorsomorphin homologue 1], for which the “phosphorylated ERK1/2” value in experiment [2] (MC-GAG at day 4) was “small elevation”. In addition, in experiment [2] (both Col-GAG and MC-GAG, particularly day 14), the OPG expression result is given as “increased”. Moreover, the “total Smad5, total ERK1/2, RANKL, or actin” value in experiment [2] (hMSCs on Col-GAG and MC-GAG) is on record as “No differences”. Moreover, the “phosphorylation of Smad1/5” value in experiment [2] (hMSCs on either material) is recorded as “partially decreased at all timepoints”.
